In patent US20260200975A1, “PEPTIDE FOR CARTILAGE REGENERATION, AND USES THEREOF” (CAREGEN CO., LTD., priority 2022, published 2026):
Peptide text beside a SMILES is read from it.

Test system: human-derived chondrocytes (C28/12, human chondrocyte cell line)
Test: Cytotoxicity by CCK-8 assay
Assay type: cell-based
Conditions: C28/12 cells, different concentrations, 3 days, absorbance 450 nm
Description: The cytotoxicity of Peptide-1 or Peptide-2 upon addition to human-derived chondrocytes (C28/12, human chondrocyte cell line) was analyzed using a CCK-8 assay.
Specifically, human-derived chondrocytes were seeded in a 96-well plate at a density of 3×10^3 cells/well and cultured in DMEM medium (cat. 11995-065, Gibco) for 24 hours. […] Meanwhile, as a positive control group, one to which TGFβ1 (20 ng/ml) was added was used.

SMILES | toxicity in human-derived chondrocytes (CCK-8 activity)
N[C@@H](CCC(=O)O)C(=O)N[C@@H](Cc1ccc(O)cc1)C(=O)N[C@@H](Cc1ccccc1)C(=O)N[C@@H](Cc1c[nH]c2ccccc12)C(=O)O [Peptide-1, Glu(E)-Tyr(Y)-Phe(F)-Trp(W)] (H-EYFW-OH) | did not exhibit toxicity
CC(C)C[C@H](NC(=O)[C@@H](NC(=O)[C@@H](N)CCCNC(=N)N)[C@@H](C)O)C(=O)O [Peptide-2, Arg(R)-Thr(T)-Leu(L)] (H-Arg-Thr-Leu-OH) | did not exhibit toxicity
